In ChEMBL document CHEMBL1134914, “Acyl dipeptides as reversible caspase inhibitors. Part 1: initial lead optimization” (Bioorg Med Chem Lett, 2002):

Key:
[1] = molecular target: Caspase-1 (Mus musculus) (UniProt P29452)
[2] = molecular target: T1, Caspase-6 (Homo sapiens, UniProt P55212); assay: Inhibitory concentration required against caspase-6
T1 sequence (P55212 whole entry): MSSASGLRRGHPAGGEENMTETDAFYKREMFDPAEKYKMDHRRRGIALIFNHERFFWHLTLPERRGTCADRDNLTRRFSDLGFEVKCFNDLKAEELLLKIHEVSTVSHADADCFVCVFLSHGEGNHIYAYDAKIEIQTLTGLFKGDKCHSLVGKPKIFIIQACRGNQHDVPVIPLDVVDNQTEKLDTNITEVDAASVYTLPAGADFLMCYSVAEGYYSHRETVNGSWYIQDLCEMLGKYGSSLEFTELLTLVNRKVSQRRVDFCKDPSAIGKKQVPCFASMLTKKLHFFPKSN

[3] = molecular target: T2, Caspase-7 (Homo sapiens, UniProt P55210); assay: Inhibitory concentration against caspase-7
T2 sequence (P55210 whole entry): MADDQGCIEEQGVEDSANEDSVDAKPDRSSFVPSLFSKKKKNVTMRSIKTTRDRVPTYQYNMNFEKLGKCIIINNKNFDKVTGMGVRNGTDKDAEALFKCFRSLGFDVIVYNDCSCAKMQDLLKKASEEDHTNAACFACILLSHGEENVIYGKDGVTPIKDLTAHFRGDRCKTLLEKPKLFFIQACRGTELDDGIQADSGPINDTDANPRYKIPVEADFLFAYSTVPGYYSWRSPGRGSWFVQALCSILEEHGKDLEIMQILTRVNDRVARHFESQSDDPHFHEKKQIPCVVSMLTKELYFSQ

[4] = molecular target: Caspase-8 (Homo sapiens, UniProt Q14790); assay: Inhibitory concentration against caspase-8
[5] = molecular target: T3, Caspase-3 (Homo sapiens, UniProt P42574); assay: Inhibitory concentration against caspase-3
T3 sequence (P42574 whole entry): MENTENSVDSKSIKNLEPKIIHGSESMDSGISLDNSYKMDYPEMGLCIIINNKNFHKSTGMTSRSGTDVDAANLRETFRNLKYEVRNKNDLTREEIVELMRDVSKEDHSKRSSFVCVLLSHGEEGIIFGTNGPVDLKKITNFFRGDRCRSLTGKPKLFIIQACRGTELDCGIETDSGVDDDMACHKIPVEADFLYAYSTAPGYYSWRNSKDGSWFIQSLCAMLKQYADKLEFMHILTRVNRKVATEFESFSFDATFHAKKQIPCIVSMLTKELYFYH

Chain of Caspase-8 (Q14790 217-374 limits assumed): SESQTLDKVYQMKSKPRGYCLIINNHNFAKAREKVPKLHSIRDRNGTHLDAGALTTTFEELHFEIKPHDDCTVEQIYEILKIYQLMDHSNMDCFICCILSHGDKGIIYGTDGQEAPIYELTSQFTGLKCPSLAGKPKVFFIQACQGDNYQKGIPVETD
Chain of Caspase-8 (Q14790 385-479 limits assumed): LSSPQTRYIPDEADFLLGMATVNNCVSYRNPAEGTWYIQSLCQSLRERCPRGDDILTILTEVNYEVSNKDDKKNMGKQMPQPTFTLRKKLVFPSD
Chain of Caspase-1 (Mus musculus) (P29452 whole entry, looked up): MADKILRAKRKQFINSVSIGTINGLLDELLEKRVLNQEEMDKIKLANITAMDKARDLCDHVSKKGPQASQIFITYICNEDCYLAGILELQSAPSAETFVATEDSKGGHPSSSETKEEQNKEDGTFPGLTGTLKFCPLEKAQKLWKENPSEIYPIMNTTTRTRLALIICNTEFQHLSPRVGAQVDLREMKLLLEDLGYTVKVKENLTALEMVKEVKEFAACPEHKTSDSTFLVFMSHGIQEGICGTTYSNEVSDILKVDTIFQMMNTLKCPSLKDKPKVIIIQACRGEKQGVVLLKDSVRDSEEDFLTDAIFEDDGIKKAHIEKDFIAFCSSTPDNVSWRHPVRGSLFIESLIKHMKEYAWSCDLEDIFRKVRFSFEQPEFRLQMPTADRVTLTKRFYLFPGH

Row | SMILES | IC50 [1] | IC50 [2] | IC50 [3] | IC50 [4] | IC50 [5]
1 | CC(C)C[C@H](NC(=O)COc1nccc2ccccc12)C(=O)N[C@H]1CC(=O)OC1O (stereo partly drawn) | 44.2 µM | > 50 µM | 34.7 µM | > 50 µM | 1.57 µM
2 | CC(C)C[C@H](NC(=O)COc1ccccc1)C(=O)N[C@H]1CC(=O)OC1O (stereo partly drawn) | > 10 µM | > 50 µM | > 10 µM | > 10 µM | 3.4 µM
3 | CC(C)C[C@H](NC(=O)CCCc1ccc2ccccc2c1)C(=O)N[C@H]1CC(=O)OC1O (stereo partly drawn) | 1.8 µM | 14.5 µM | 18.2 µM | > 50 µM | 2.76 µM
4 | CC(C)C[C@H](NC(=O)COc1ccc(OCc2ccccc2)cc1)C(=O)N[C@H]1CC(=O)OC1O (stereo partly drawn) | 2.51 µM | 33.4 µM | 7.25 µM | 8.6 µM | 0.57 µM
5 | CC(C)C[C@H](NC(=O)c1cccc2ccccc12)C(=O)N[C@H]1CC(=O)OC1O (stereo partly drawn) | – | > 10 µM | > 10 µM | > 10 µM | > 10 µM
6 | CC(C)C[C@H](NC(=O)CCOc1ccc2ccccc2c1)C(=O)N[C@H]1CC(=O)OC1O (stereo partly drawn) | 1.32 µM | 5.9 µM | 9.65 µM | 15.2 µM | 0.91 µM
7 | CC(C)[C@@H](NC(=O)OCc1ccccc1)C(=O)C[C@H]1CC(=O)OC1O (stereo partly drawn) | 5.85 µM | 10 µM | 6.81 µM | 12 µM | 1.75 µM
8 | CC(C)C[C@H](NC(=O)Cc1ccc2ccccc2c1)C(=O)N[C@H]1CC(=O)OC1O (stereo partly drawn) | 3.14 µM | 11.1 µM | > 10 µM | 12.7 µM | 0.849 µM
9 | CC(C)C[C@H](NC(=O)c1ccc2ccccc2c1)C(=O)N[C@H]1CC(=O)OC1O (stereo partly drawn) | 1.74 µM | > 10 µM | > 10 µM | > 10 µM | 6.74 µM
10 | CC(C)C[C@H](NC(=O)CCc1cccc2ccccc12)C(=O)N[C@H]1CC(=O)OC1O (stereo partly drawn) | 1.86 µM | 4.18 µM | 8.77 µM | 12.2 µM | 1.59 µM
11 | CC(C)C[C@H](NC(=O)/C=C/c1ccccc1)C(=O)N[C@H]1CC(=O)OC1O (stereo partly drawn) | 0.65 µM | 5.05 µM | 9.72 µM | 13.4 µM | 1.39 µM
12 | CC(C)C[C@H](NC(=O)CCOc1ccccc1)C(=O)N[C@H]1CC(=O)OC1O (stereo partly drawn) | 9.42 µM | > 50 µM | 6.04 µM | > 10 µM | 0.419 µM
13 | CC(C)C[C@H](NC(=O)CCSc1ccc2ccccc2c1)C(=O)N[C@H]1CC(=O)OC1O (stereo partly drawn) | 0.611 µM | 1.62 µM | 5.89 µM | 15 µM | 0.837 µM
14 | CC(C)C[C@H](NC(=O)COc1ccc(Oc2ccccc2)cc1)C(=O)N[C@H]1CC(=O)OC1O (stereo partly drawn) | 2.21 µM | 21.2 µM | 6.82 µM | 9.28 µM | 0.545 µM
15 | CC(C)C[C@H](Nc1ccccc1)C(=O)N[C@H]1CC(=O)OC1O (stereo partly drawn) | > 10 µM | > 50 µM | > 10 µM | > 10 µM | 3.4 µM
16 | CC(C)C[C@H](NC(=O)C(C)Oc1cccc2cc(Br)ccc12)C(=O)N[C@H]1CC(=O)OC1O (stereo partly drawn) | – | 13.8 µM | 32.4 µM | 29.1 µM | 4.81 µM
17 | CC(C)C[C@H](NC(=O)CC(=O)c1ccc2ccccc2c1)C(=O)N[C@H]1CC(=O)OC1O (stereo partly drawn) | 0.543 µM | 10.3 µM | 7.43 µM | 5.23 µM | 1.42 µM
18 | CC(C)C[C@H](NC(=O)Cc1cccc2ccccc12)C(=O)N[C@H]1CC(=O)OC1O (stereo partly drawn) | 3.24 µM | – | 7.27 µM | – | 0.853 µM
19 | CC(C)C[C@H](NC(=O)CC(=O)c1cccc2ccccc12)C(=O)N[C@H]1CC(=O)OC1O (stereo partly drawn) | 0.408 µM | 11.8 µM | 11.3 µM | 11.2 µM | 0.967 µM
20 | CC(C)C[C@H](NC(=O)COc1ccc(C23CC4CC(CC(C4)C2)C3)cc1)C(=O)N[C@H]1CC(=O)OC1O (stereo partly drawn) | 1.83 µM | 32.5 µM | 8.24 µM | 4.35 µM | 0.528 µM
21 | CC(C)C[C@H](NC(=O)COc1ccc(C2CCCC2)cc1)C(=O)N[C@H]1CC(=O)OC1O (stereo partly drawn) | 2.2 µM | 51.2 µM | 5.23 µM | 5.9 µM | 0.319 µM

The next compounds have a lower IC50 [3] than those just listed; values first:

Row | IC50 [1] | IC50 [2] | IC50 [3] | IC50 [4] | IC50 [5] | SMILES
22 | 0.831 µM | 22.6 µM | 4.08 µM | 1.45 µM | 0.263 µM | COc1ccc(OCC(=O)N[C@@H](CC(C)C)C(=O)N[C@H]2CC(=O)OC2O)c2ccccc12 (stereo partly drawn)
23 | 35.3 µM | > 50 µM | 4.57 µM | > 50 µM | 0.232 µM | CC(C)C[C@H](NC(=O)COc1ccnc2ccccc12)C(=O)N[C@H]1CC(=O)OC1O (stereo partly drawn)
24 | 2.4 µM | 9.75 µM | 2.2 µM | 4.34 µM | 0.222 µM | CC(C)C[C@H](NC(=O)COc1ccccc1OCc1ccccc1)C(=O)N[C@H]1CC(=O)OC1O (stereo partly drawn)
25 | 13.7 µM | 12.5 µM | 1.51 µM | 2.24 µM | 0.147 µM | CC(C)C[C@H](NC(=O)COc1cccc2cccnc12)C(=O)N[C@H]1CC(=O)OC1O (stereo partly drawn)
26 | 5.14 µM | 42.7 µM | 3.48 µM | 3.64 µM | 0.407 µM | CC(C)C[C@H](NC(=O)COc1cccc2cnccc12)C(=O)N[C@H]1CC(=O)OC1O (stereo partly drawn)
27 | 0.521 µM | 10.1 µM | 3.36 µM | 6.05 µM | 0.49 µM | CC(C)C[C@H](NC(=O)COc1ccccc1Cc1ccccc1)C(=O)N[C@H]1CC(=O)OC1O (stereo partly drawn)
28 | – | 0.305 µM | 1.37 µM | 9.81 µM | 0.059 µM | CC(C)C[C@H](NC(=O)CCOc1cccc2ccccc12)C(=O)N[C@H]1CC(=O)OC1O (stereo partly drawn)
29 | – | 1.28 µM | 1.32 µM | 2.43 µM | 0.376 µM | CC(C)C[C@H](NC(=O)C(C)Oc1cccc2ccccc12)C(=O)N[C@H]1CC(=O)OC1O (stereo partly drawn)
30 | 0.563 µM | 2.72 µM | 3.6 µM | 16.3 µM | 0.412 µM | CC(C)C[C@H](NC(=O)CCSc1cccc2ccccc12)C(=O)N[C@H]1CC(=O)OC1O (stereo partly drawn)
31 | 1.81 µM | 11.8 µM | 2.74 µM | 1.75 µM | 0.324 µM | CC(C)C[C@H](NC(=O)COc1cccc2c1CCCC2)C(=O)N[C@H]1CC(=O)OC1O (stereo partly drawn)
32 | 5.25 µM | > 50 µM | 3.85 µM | 4.02 µM | 0.412 µM | CC(C)C[C@H](NC(=O)COc1cccc2ncccc12)C(=O)N[C@H]1CC(=O)OC1O (stereo partly drawn)
33 | 2.75 µM | 1.43 µM | 1.74 µM | 7.42 µM | 0.195 µM | CC(C)C[C@H](NC(=O)CSc1cccc2ccccc12)C(=O)N[C@H]1CC(=O)OC1O (stereo partly drawn)
34 | – | 0.94 µM | 1.81 µM | 0.77 µM | 0.135 µM | CC(C)C[C@H](NC(=O)COc1cccc2ccccc12)C(=O)N[C@H]1CC(=O)OC1O (stereo partly drawn)
35 | 1.43 µM | 5.86 µM | 2.79 µM | 3.87 µM | 0.474 µM | Cc1ccc(OCC(=O)N[C@@H](CC(C)C)C(=O)N[C@H]2CC(=O)OC2O)c(C23CC4CC(CC(C4)C2)C3)c1 (stereo partly drawn)
36 | 0.538 µM | 3.37 µM | 1.49 µM | 1.86 µM | 0.197 µM | CC(C)C[C@H](NC(=O)COc1ccccc1C1CCCC1)C(=O)N[C@H]1CC(=O)OC1O (stereo partly drawn)
37 | 2.57 µM | 28.6 µM | 2.31 µM | 4.95 µM | 0.162 µM | CC(C)C[C@H](NC(=O)COc1ccc2c(c1)CCCC2)C(=O)N[C@H]1CC(=O)OC1O (stereo partly drawn)
38 | 1.8 µM | 18.9 µM | 4.41 µM | 4.72 µM | 0.346 µM | CC(C)C[C@H](NC(=O)COc1ccc(Cc2ccccc2)cc1)C(=O)N[C@H]1CC(=O)OC1O (stereo partly drawn)
39 | 0.792 µM | 3.16 µM | 2.52 µM | 11 µM | 0.269 µM | CC(C)C[C@H](NC(=O)CSc1ccc2ccccc2c1)C(=O)N[C@H]1CC(=O)OC1O (stereo partly drawn)
40 | 0.429 µM | 12 µM | 3.38 µM | 1.69 µM | 0.231 µM | CC(C)C[C@H](NC(=O)COc1ccc(Cl)c2ccccc12)C(=O)N[C@H]1CC(=O)OC1O (stereo partly drawn)
41 | 1.1 µM | 14.5 µM | 3.75 µM | 3.86 µM | 0.311 µM | CC(C)C[C@H](NC(=O)COc1cccc(-c2ccccc2)c1)C(=O)N[C@H]1CC(=O)OC1O (stereo partly drawn)
42 | 0.636 µM | 0.717 µM | 2.02 µM | 1.71 µM | 0.095 µM | CC(C)C[C@H](NC(=O)COc1ccccc1-c1ccccc1)C(=O)N[C@H]1CC(=O)OC1O (stereo partly drawn)
